Results as given in ChEMBL document CHEMBL1201862, “PubChem BioAssay data set” (2004).
Active and inactive are the calls of the source.

Legend:
[1] = NIH-3T3 fibroblast cytotoxicity, dose response, cytotoxicity control, cell-based, fluorescence, Alamar Blue, secondary assay (AID 2327); format: functional;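 note: NIH-3T3 mouse fibroblasts cultured with fluconazole at 8 µg/mL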
Protein skinhead-1 = biological target: T1, Protein skinhead-1 (Caenorhabditis elegans, UniProt P34707); format: functional
T1 sequence (P34707 whole entry): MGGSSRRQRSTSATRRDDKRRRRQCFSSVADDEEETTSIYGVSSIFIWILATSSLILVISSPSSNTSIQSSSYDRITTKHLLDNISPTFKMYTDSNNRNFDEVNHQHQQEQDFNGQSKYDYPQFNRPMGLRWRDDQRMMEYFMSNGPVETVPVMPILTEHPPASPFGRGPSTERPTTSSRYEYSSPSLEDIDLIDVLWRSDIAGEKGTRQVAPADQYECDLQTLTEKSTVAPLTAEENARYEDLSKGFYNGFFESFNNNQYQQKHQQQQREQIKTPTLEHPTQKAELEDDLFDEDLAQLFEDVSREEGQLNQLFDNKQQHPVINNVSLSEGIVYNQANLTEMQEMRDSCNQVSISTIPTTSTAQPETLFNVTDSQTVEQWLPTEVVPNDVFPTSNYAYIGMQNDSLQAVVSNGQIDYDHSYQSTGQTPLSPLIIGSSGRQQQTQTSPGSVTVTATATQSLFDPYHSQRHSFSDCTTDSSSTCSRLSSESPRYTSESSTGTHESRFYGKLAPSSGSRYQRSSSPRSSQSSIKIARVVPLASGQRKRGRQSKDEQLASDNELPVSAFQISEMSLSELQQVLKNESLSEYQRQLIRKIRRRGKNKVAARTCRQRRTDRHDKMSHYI

[2] = C. albicans growth with fluconazole, confirmation, fluorescence, retest (AID 2467); format: functional, cell-based
[3] = biological target: T2, Serine/threonine-protein phosphatase (Candida dubliniensis (strain CD36 / CBS 7987 / NCPF 3949 / NRRLY-17841) (Yeast), UniProt B9W6M3); experiment: calcineurin pathway inhibitors in yeast reporter, dose response, S. cerevisiae, CDRE-lacZ, luminescence, secondary (AID 2388); format: functional, cell-based;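 note: yeast reporter cells carrying a calcineurin-responsive lacZ construct stimulated with calcium chloride; luminescent beta-galactosidase reporter signal in whole cells rather than isolated phosphatase activity; potency for inhibition where a drop in reporter signal means calcineurin blockade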
T2 sequence (B9W6M3 whole entry): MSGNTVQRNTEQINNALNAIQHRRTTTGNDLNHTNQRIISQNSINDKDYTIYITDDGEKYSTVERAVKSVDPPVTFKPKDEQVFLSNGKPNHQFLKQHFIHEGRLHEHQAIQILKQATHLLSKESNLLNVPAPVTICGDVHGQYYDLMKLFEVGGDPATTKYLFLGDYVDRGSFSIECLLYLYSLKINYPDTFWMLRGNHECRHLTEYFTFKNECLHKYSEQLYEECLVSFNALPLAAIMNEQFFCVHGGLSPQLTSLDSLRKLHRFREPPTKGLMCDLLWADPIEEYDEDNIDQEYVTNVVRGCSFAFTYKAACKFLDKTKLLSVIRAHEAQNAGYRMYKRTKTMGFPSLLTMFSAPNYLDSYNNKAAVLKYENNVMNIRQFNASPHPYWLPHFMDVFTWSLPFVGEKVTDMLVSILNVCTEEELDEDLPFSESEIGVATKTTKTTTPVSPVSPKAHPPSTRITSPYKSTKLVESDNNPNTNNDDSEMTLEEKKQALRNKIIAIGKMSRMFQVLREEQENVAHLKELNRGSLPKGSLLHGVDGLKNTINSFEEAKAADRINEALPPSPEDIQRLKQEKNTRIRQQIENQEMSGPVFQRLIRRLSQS

INS1 = experiment: beta cell apoptosis inhibitors, cytokine rescue, dose response, luminescence, retest (AID 449756); format: functional, cell-based; conditions: Rattus norvegicus;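 note: cell death triggered by IL-1 beta plus TNF-alpha plus IFN-gamma mixture; protective hits raise ATP signal compared with cytokine alone wells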
[4] = biological target: ATP-dependent molecular chaperone HSP82 (Candida albicans (strain WO-1) (Yeast), UniProt C4YTQ8); experiment: loss of DOC-induced GRE-beta-galactosidase reporter signal, dose response, Hsp90 inhibitor project, S. cerevisiae, luminescence (AID 2400); format: functional, cell-based;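 note: beta-galactosidase luminescence from glucocorticoid response element reporter as proxy for Hsp90 function; inhibitor potency where signal loss means Hsp90 inhibition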
[5] = biological target: T3, Type-1 angiotensin II receptor (Homo sapiens, UniProt P30556); experiment: AT1 receptor antagonists, dose response, selectivity assay for APJ receptor antagonist project, cell-based, uHTS hits (AID 463214); format: functional;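 note: antagonist potency against angiotensin II stimulated AT1 response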
T3 sequence (P30556 whole entry): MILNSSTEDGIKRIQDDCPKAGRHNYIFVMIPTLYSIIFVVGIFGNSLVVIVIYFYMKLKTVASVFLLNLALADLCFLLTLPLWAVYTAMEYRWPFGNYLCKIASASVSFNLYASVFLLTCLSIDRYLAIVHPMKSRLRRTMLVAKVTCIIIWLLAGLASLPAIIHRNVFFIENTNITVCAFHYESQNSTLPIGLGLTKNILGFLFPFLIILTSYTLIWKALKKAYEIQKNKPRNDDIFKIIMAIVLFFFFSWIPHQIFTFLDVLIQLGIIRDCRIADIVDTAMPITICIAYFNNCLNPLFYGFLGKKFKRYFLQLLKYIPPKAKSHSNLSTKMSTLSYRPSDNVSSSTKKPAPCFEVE

Beta-galactosidase = Beta-galactosidase (Escherichia coli, UniProt Q8VNN2); experiment: PubChem AID 485352; format: functional
Vero = Vero cell cytotoxicity, cytotoxicity control for flavivirus capping enzyme inhibitors (AID 588742); format: functional; conditions: Chlorocebus sabaeus
[6] = biological target: T4, High affinity choline transporter 1 (Homo sapiens, UniProt Q9GZV3); experiment: CHT inhibitors, dose response, cell-based, 5-point CRC, membrane potential dye (AID 504840); format: functional
T4 sequence (Q9GZV3 whole entry): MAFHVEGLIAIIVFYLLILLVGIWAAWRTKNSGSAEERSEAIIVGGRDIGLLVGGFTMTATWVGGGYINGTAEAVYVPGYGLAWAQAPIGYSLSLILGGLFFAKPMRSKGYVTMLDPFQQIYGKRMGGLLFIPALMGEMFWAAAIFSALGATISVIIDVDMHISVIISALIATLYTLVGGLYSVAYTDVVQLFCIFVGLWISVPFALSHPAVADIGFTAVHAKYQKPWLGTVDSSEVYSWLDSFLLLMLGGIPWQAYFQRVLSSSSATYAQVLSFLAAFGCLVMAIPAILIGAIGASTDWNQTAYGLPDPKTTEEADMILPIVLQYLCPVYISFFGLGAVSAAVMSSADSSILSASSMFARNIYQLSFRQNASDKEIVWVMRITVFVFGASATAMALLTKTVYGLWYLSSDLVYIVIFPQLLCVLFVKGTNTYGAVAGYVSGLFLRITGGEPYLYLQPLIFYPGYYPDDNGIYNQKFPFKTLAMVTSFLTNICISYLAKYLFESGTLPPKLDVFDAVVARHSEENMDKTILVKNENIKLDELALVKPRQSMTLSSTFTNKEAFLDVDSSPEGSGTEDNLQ

[7] = biological target: T4, High affinity choline transporter 1; experiment: CHT inhibitors, dose response, cell-based, 10-point CRC, membrane potential dye (AID 588401); format: functional;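 note: membrane potential dye fluorescence of choline-evoked depolarization via CHT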
Orexin receptor type 2 [8] = biological target: T5, Orexin receptor type 2 (Homo sapiens, UniProt O43614); experiment: Counterscreen assay for antagonists of the orexin 1 receptor (OX1R; HCRTR1): Fluorescence-based cell-based dose response assay for antagonists of the orexin 2 receptor (OX2R; HCRTR2), run by assay provider.; format: functional
T5 sequence (O43614 whole entry): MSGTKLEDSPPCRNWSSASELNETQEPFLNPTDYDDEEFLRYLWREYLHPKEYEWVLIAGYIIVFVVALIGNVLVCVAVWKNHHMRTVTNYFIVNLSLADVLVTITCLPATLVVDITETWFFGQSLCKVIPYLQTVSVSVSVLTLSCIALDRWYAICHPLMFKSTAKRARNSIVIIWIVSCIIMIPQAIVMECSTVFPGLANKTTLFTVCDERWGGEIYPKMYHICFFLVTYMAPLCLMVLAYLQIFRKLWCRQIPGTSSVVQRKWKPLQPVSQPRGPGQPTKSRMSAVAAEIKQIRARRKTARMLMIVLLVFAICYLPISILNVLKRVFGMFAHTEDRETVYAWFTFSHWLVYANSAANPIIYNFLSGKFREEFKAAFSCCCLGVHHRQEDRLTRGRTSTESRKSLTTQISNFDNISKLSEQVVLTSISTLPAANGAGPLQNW

Orexin receptor type 2 [9] = biological target: T5, Orexin receptor type 2; experiment: Counterscreen assay for antagonists of the orexin 1 receptor (OX1R; HCRTR1): Homogeneous Time Resolved Fluorescence (HTRF)-based cell-based dose response assay for antagonists of the orexin 2 receptor (OX2R; HCRTR2), run by assay provider.; format: functional
[10] = biological target: T6, Short transient receptor potential channel 4 (Mus musculus, UniProt Q9QUQ5); experiment: mouse TRPC4 channel activators, dose response, cell-based, HEK293 TRPC4/mu-opioid, Fluo-4 calcium (AID 434937); format: functional
T6 sequence (Q9QUQ5 whole entry): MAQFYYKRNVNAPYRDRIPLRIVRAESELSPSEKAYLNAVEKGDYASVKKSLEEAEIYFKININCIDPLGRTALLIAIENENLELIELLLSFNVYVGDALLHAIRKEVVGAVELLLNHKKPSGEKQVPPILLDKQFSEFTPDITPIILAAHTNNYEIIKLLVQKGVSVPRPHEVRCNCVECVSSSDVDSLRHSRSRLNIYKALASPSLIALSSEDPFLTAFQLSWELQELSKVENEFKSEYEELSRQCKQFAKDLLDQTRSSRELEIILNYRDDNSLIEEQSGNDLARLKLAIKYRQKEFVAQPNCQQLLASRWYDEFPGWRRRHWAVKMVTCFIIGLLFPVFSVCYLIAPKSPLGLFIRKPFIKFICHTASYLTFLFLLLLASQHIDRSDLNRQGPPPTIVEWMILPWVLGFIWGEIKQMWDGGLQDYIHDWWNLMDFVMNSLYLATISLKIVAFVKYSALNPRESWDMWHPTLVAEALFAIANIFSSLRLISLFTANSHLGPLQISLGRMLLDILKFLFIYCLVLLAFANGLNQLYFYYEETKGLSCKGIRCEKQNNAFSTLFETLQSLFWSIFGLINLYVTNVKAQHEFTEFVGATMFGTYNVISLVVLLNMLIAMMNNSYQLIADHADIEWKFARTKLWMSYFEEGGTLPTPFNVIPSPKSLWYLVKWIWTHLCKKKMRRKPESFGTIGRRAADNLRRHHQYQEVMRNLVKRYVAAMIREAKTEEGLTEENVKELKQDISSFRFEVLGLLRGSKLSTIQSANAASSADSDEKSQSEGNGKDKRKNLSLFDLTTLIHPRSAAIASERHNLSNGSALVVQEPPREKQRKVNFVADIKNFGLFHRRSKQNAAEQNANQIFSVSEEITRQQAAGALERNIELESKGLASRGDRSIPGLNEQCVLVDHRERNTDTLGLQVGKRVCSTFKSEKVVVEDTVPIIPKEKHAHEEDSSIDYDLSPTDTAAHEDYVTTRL

A-375 [11] = experiment: A375 melanoma cell viability reduction, dose response, counter-screen for MITF modulator project, cherry-pick samples, set 2 (AID 540335); format: functional, cell-based; conditions: Homo sapiens
[12] = biological target: T7, Microphthalmia-associated transcription factor (Homo sapiens, UniProt O75030); experiment: TRPM1 promoter luciferase signal decrease, dose response, MITF inhibitor project, cell-based, SK-MEL-5, cherry-picked, set 3 (AID 493073); format: functional
T7 sequence (O75030 whole entry): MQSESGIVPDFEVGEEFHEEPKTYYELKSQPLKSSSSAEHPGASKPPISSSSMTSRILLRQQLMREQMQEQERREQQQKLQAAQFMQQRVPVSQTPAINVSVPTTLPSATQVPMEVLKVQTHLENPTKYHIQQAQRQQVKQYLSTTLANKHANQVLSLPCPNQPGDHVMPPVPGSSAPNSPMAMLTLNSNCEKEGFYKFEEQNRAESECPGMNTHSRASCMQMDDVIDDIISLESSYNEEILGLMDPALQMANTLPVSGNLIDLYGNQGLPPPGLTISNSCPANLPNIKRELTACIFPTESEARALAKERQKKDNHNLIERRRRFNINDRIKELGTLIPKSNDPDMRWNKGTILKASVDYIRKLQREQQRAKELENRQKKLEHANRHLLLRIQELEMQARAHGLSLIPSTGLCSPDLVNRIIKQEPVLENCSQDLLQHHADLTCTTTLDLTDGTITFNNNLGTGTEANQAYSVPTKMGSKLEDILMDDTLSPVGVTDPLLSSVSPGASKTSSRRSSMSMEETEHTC

A-375 [13] = experiment: MITF: Counter assay: A375 proliferation Measured in Cell-Based System Using Plate Reader - 2084-03_Inhibitor_Dose_DryPowder_Activity. [Related pubchem assays (depositor defined):AID488944]; format: functional; conditions: Homo sapiens
[14] = microbe, parasite or virus in culture; format: functional; conditions: Mycobacterium tuberculosis

Beta-galactosidase, sequence (Q8VNN2 whole entry): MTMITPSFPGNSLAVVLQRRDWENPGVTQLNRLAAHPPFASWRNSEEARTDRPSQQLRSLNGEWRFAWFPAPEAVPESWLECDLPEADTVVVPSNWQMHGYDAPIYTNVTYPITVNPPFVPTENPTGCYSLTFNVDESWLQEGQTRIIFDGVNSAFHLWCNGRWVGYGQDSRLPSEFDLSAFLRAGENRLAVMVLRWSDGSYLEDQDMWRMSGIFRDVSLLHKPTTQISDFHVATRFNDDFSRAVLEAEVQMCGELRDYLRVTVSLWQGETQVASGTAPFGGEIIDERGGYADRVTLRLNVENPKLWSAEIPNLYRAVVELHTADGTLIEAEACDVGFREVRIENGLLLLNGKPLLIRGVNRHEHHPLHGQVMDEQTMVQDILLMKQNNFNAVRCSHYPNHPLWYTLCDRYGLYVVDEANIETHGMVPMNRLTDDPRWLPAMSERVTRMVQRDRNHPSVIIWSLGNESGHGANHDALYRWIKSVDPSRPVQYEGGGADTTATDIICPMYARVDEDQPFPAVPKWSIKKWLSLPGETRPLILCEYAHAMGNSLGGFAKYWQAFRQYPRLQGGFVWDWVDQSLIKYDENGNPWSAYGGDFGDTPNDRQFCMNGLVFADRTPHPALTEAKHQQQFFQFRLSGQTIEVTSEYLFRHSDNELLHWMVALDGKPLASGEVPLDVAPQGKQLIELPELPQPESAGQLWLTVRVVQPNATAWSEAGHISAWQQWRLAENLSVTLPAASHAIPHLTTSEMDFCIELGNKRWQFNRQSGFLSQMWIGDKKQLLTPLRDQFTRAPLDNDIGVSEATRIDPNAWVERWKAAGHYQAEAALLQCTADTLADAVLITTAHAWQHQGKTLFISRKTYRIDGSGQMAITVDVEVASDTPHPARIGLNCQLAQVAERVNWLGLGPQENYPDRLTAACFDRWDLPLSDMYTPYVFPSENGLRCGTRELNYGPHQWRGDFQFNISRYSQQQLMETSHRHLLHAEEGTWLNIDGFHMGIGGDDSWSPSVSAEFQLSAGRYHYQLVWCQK
ATP-dependent molecular chaperone HSP82, sequence (C4YTQ8 whole entry): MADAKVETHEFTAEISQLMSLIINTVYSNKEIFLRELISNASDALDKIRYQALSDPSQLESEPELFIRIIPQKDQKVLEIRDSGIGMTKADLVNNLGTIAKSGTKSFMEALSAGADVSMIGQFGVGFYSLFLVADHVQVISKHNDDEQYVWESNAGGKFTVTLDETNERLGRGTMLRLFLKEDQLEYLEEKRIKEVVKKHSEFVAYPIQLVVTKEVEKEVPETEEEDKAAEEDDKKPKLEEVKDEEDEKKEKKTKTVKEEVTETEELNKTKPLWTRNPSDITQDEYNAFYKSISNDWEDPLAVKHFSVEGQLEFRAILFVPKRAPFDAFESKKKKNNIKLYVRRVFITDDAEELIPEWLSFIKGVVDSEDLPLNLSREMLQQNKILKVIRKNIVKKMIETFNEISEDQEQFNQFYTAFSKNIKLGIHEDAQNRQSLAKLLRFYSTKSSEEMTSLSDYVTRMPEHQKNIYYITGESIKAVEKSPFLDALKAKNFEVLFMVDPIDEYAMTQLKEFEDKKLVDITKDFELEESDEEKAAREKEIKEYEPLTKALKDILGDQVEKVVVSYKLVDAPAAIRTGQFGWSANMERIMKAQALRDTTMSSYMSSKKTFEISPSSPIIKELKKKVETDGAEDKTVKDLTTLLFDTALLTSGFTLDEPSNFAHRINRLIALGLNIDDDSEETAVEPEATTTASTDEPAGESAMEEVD

## COc1cccc(COc2cc3ccccc3nc2C)c1
[1]
  EC50: > 150 µM (inconclusive)
Protein skinhead-1
  IC50: 80.1 µM (inactive)
[2]
  EC50: 0.914 µM (active)
[3]
  EC50: > 180 µM (inactive)
INS1
  AC50: 2.61 µM (active)
[4]
  EC50: > 160 µM (inactive)

## O=C(COC(=O)c1ccncc1)c1ccc(Cl)c(Cl)c1
[5]
  IC50: 15 µM (active)
Beta-galactosidase
  EC50: > 40 µM (inactive)

## COc1ccc(CC2=C(O)C(=O)c3ccccc3C2=O)cc1
Vero
  CC50: > 40 µM (active)

## O=C(NC1CCCCCCC1)c1ccc(CNc2c(N3CCOCC3)c(=O)c2=O)cc1
[6]
  IC50: 0.875 µM (active)
[7]
  IC50: 2.01 µM (active)

## Cc1ccc(C(=O)COC(=O)CNS(=O)(=O)c2ccccc2)cc1[N+](=O)[O-]
[5]
  IC50: 33 µM (not active)
Beta-galactosidase
  EC50: > 40 µM (inactive)

## CCOc1ccccc1C(=O)NCCCCNC(=O)c1ccccc1OCC
Orexin receptor type 2 [8]
  IC50: > 88.8 µM (inactive)
Orexin receptor type 2 [9]
  IC50: > 50 µM (inactive)

## COc1ccc(NS(=O)(=O)c2ccc(NC(=O)c3ccccc3Br)cc2)nn1
[6]
  IC50: 10.3 µM (active)
[7]
  IC50: 5.01 µM (active)

## CN(C)CCCN(C(=O)c1ccc(Cl)s1)c1nc2cc3c(cc2s1)OCO3
[10]
  EC50: 5.96 µM (active)
A-375 [11]
  AC50: > 11 µM (active)
[12]
  AC50: 22.9 µM (active)
A-375 [13]
  AC50: > 11 µM (active)

## COc1ccc(CN2CCN(C(C)C)C(CCO)C2)cc1Cn1cccn1 (stereo not given)
[6]
  IC50: 3.31 µM (active)
[7]
  IC50: 1.41 µM (active)

## Cc1sc2nc3c4ccccc4c(NCc4ccco4)nn3c(=O)c2c1C
Vero
  CC50: > 40 µM (active)
[14]
  CC50: 37.6 µM (active)
